Our source for the pest or weed control values is patent US20110086759A1, “CHEMICAL COMPOUNDS” (SYNGENTA CROP PROTECTION, INC., priority 2007, published 2011).

SMILES strings stand for the structures.

Holding throughout (format): in vivo
The subject of experiment [1] is Echinochloa crus-galli (ECHCG). In words: Pre-emergence biological efficacy, glasshouse pot test. To be noted: 312 h, pre-emergence, rate 1,000 g/ha, evaluated after 13 days (100=total damage to plant; 0=no damage), read-out: Percentage damage caused to weed species, ECHCG. The method, boiled down:
(§1)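 Visual phytotoxicity (0 no damage, 100 total damage) assessed 13 d after treatment. Soil-sown pots sprayed one day post-sowing; dose 1000 or 250 g/ha; formulation in acetone/water 50:50, 0.5% Tween 20.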

Experiment [2] relates to Ipomea hederaceae (IPOHE). Described as above. The following applies: Ipomoea hederacea, 312 h; pre-emergence, rate 1,000 g/ha, evaluated after 13 days (100=total damage to plant; 0=no damage); read-out: Percentage damage caused to weed species, IPOHE. The method, boiled down: as §1
In experiment [3] the test system is Solanum nigrum (SOLNI). The experiment is described as above. To be noted: 312 h, pre-emergence, rate 1,000 g/ha, evaluated after 13 days (100=total damage to plant; 0=no damage), read-out: Percentage damage caused to weed species, SOLNI. The method, boiled down:
as §1

In experiment [4] the test system is Alopecurus myosuroides (ALOMY). The experiment is described as above. To be noted: 312 h, pre-emergence, rate 1,000 g/ha, evaluated after 13 days (100=total damage to plant; 0=no damage), read-out: Percentage damage caused to weed species, ALOMY. The method, boiled down:
as §1

Experiment [5] has as its system Setaria faberi (SETFA). The experiment is described as above. The following applies: 312 h, pre-emergence, rate 1,000 g/ha, evaluated after 13 days (100=total damage to plant; 0=no damage), read-out: Percentage damage caused to weed species, SETFA. In a few lines: as §1
Experiment [6] has as its system Amaranthus retoflexus (AMARE). Described as above. To be noted: Amaranthus retroflexus, 312 h; pre-emergence, rate 1,000 g/ha, evaluated after 13 days (100=total damage to plant; 0=no damage); read-out: Percentage damage caused to weed species, AMARE. The method, boiled down: as §1
In experiment [7] the test system is Echinochloa crus-galli (ECHCG). In words: Post-emergence biological efficacy, glasshouse pot test. The following applies: 312 h, Rate 1,000 g/ha, post-emergence spray, evaluated after 13 days (100=total damage to plant; 0=no damage to plant), read-out: Percentage damage caused to weed species, post-emergence, ECHCG. The method, boiled down: (§2)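 Pot-grown weeds were sprayed 8 days after sowing with test compound in acetone/water (50:50) with 0.5% Tween 20 at 1000 or 250 g/ha. Glasshouse at 24/16° C day/night, 14 h light, 65% humidity. Damage scored 0-100 (100 = total damage) after 13 days.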

Experiment [8] has as its system Ipomea hederaceae (IPOHE). Described as above. The following applies: Ipomoea hederacea, 312 h; Rate 1,000 g/ha; post-emergence spray; evaluated after 13 days (100=total damage to plant; 0=no damage to plant); read-out: Percentage damage caused to weed species, post-emergence, IPOHE. The method, boiled down:
as §2

The test system of experiment [9] is Solanum nigrum (SOLNI). Described as above. The following applies: 312 h, Rate 1,000 g/ha, post-emergence spray, evaluated after 13 days (100=total damage to plant; 0=no damage to plant), read-out: Percentage damage caused to weed species, post-emergence, SOLNI. The method, boiled down:
as §2

Experiment [10] concerns Alopecurus myosuroides (ALOMY). The experiment is described as above. The following applies: 312 h, Rate 1,000 g/ha, post-emergence spray, evaluated after 13 days (100=total damage to plant; 0=no damage to plant), read-out: Percentage damage caused to weed species, post-emergence, ALOMY. In a few lines: as §2
The subject of experiment [11] is Setaria faberi (SETFA). The experiment is described as above. To be noted: 312 h, Rate 1,000 g/ha, post-emergence spray, evaluated after 13 days (100=total damage to plant; 0=no damage to plant), read-out: Percentage damage caused to weed species, post-emergence, SETFA. The method, boiled down:
as §2

Experiment [12] has as its system Amaranthus retoflexus (AMARE). Described as above. To be noted: Amaranthus retroflexus, 312 h; Rate 1,000 g/ha; post-emergence spray; evaluated after 13 days (100=total damage to plant; 0=no damage to plant); read-out: Percentage damage caused to weed species, post-emergence, AMARE. In a few lines:
as §2

Regarding `COC(=O)c1nc(-c2cc(F)c(Cl)c(F)c2)nc(NCc2ccco2)c1Cl` [Compound 232-48, 5-Chloro-2-(4-chloro-3,5-difluorophenyl)-4-(furan-2-ylmethyl-amino)-6-methoxy-carbonylpyrimidine], the pest or weed control at 1000 g/ha (in experiment [1]; in experiment [2]; in the experiment on Solanum nigrum (SOLNI) [3]; in experiment [4]; in the experiment on Setaria faberi (SETFA) [5]; in [6]) was 0% in each case. The pest or weed control at 1000 g/ha is 0% in experiment [7]; 10% in experiment [8]; 60% with Solanum nigrum (SOLNI) [9]; 0% in [10]; 0% with Setaria faberi (SETFA) [11]; 20% in experiment [12].
With `COC(=O)c1nc(-c2ccc(C(F)(F)F)cc2)nc(NCc2ccco2)c1Cl` [Compound 233-48, 5-Chloro-4-(furan-2-ylmethylamino)-6-methoxycarbonyl-2-(4-trifluoromethyl-phenyl)pyrimidine], the pest or weed control at 1000 g/ha in experiment [1] came out at 20%; in [2], 60%; in the experiment on Solanum nigrum (SOLNI) [3], 100%; in experiment [4] it was 30%; in the experiment with Setaria faberi (SETFA) [5], 20%; in [6] it was 100%. The pest or weed control at 1000 g/ha in experiment [7] was 30%; in [8], 70%; with Solanum nigrum (SOLNI) [9], 80%; in experiment [10], 20%; in the experiment on Setaria faberi (SETFA) [11] it was 10%; in [12], 80%.
Turning to `COC(=O)c1nc(-c2ccc(C(F)(F)F)cc2C(F)(F)F)nc(NCc2ccco2)c1Cl` [Compound 234-48, 2-[2,4-Bis(trifluoro-methyl)phenyl]-5-chloro-4-(furan-2-yl-methylamino)-6-methoxycarbonyl-pyrimidine], the pest or weed control at 1000 g/ha in [1] is 10%; in experiment [2] it was 100%; in the experiment with Solanum nigrum (SOLNI) [3], 80%; in experiment [4] it was 20%; in the experiment with Setaria faberi (SETFA) [5] it was 10%; in experiment [6], 90%. The pest or weed control at 1000 g/ha in [7] was 30%; in experiment [8], 100%; in the experiment on Solanum nigrum (SOLNI) [9], 80%; in [10] it was 10%; in the experiment with Setaria faberi (SETFA) [11] it was 40%; in experiment [12], 100%.
As to `COC(=O)c1nc(-c2ccc(C(F)(F)F)c(Cl)c2)nc(NCc2ccco2)c1Cl` [Compound 235-48, 5-Chloro-2-(3-chloro-4-trifluoromethyl-phenyl)-4-(furan-2-ylmethylamino)-6-methoxycarbonyl-pyrimidine], the pest or weed control at 1000 g/ha came out at 0% in experiment [1]; 20% in experiment [2]; 20% in the experiment on Solanum nigrum (SOLNI) [3]; 0% in experiment [4]; 0% in the experiment with Setaria faberi (SETFA) [5]; 10% in [6]. The pest or weed control at 1000 g/ha turned out to be 0% in [7]; 60% in experiment [8]; 80% with Solanum nigrum (SOLNI) [9]; 10% in experiment [10]; 10% with Setaria faberi (SETFA) [11]; 80% in [12].
With `COC(=O)c1nc(-c2ccc(C)cc2)nc(NCc2ccco2)c1Cl` [Compound 237-48, 5-Chloro-4-(furan-2-ylmethylamino)-6-methoxycarbonyl-2-(4-methylphenyl)-pyrimidine], the pest or weed control at 1000 g/ha came to 20% in experiment [1]; 30% in experiment [2]; 0% in the experiment on Solanum nigrum (SOLNI) [3]; 20% in [4]; 0% in the experiment with Setaria faberi (SETFA) [5]; 100% in [6]. Moreover, the pest or weed control at 1000 g/ha in experiment [7] is 0%; in experiment [8], 70%; in the experiment on Solanum nigrum (SOLNI) [9], 60%; in experiment [10] it was 0%; with Setaria faberi (SETFA) [11] it was 0%; in [12], 100%.
Regarding `COC(=O)c1nc(-c2ccc(C)cc2Cl)nc(NCc2ccco2)c1Cl` [Compound 238-48, 5-Chloro-2-(2-chloro-4-methylphenyl)-4-(furan-2-yl-methyl-amino)-6-methoxy-carbonylpyrimidine], the pest or weed control at 1000 g/ha in [1] was 0%; in experiment [2], 0%; in the experiment with Solanum nigrum (SOLNI) [3], 0%; in experiment [4] it was 20%; in the experiment with Setaria faberi (SETFA) [5] it was 10%; in experiment [6], 100%. For the same compound, the pest or weed control at 1000 g/ha in experiment [7] came out at 0%; in [8] it was 60%; in the experiment on Solanum nigrum (SOLNI) [9], 30%; in experiment [10] it was 10%; with Setaria faberi (SETFA) [11], 0%; in experiment [12] it was 100%.
Turning to `COC(=O)c1nc(-c2ccc(C)c(Cl)c2)nc(NCc2ccco2)c1Cl` [Compound 239-48, 5-Chloro-2-(3-chloro-4-methylphenyl)-4-(furan-2-yl-methyl-amino)-6-methoxy-carbonylpyrimidine], the pest or weed control at 1000 g/ha (in experiment [1]; in [2]; in the experiment with Solanum nigrum (SOLNI) [3]; in experiment [4]; in the experiment with Setaria faberi (SETFA) [5]; in experiment [6]) was 0% each time. Moreover, the pest or weed control at 1000 g/ha in experiment [7] came to 0%; in [8], 30%; in the experiment on Solanum nigrum (SOLNI) [9], 30%; in [10] it was 0%; in the experiment on Setaria faberi (SETFA) [11] it was 0%; in [12], 20%.
For the compound `COC(=O)c1nc(-c2ccc(C)c(F)c2)nc(NCc2ccco2)c1Cl` [Compound 240-48, 5-Chloro-2-(3-fluoro-4-methylphenyl)-4-(furan-2-yl-methyl-amino)-6-methoxy-carbonylpyrimidine], the pest or weed control at 1000 g/ha stood at 0% in [1]; 0% in experiment [2]; 50% in the experiment on Solanum nigrum (SOLNI) [3]; 0% in experiment [4]; 0% with Setaria faberi (SETFA) [5]; 100% in experiment [6]. Besides, the pest or weed control at 1000 g/ha in experiment [7] was 20%; in [8], 70%; with Solanum nigrum (SOLNI) [9] it was 30%; in [10] it was 0%; in the experiment with Setaria faberi (SETFA) [11], 10%; in experiment [12] it was 100%.
